From US12037344B2, “NLRP3 modulators” (INNATE TUMOR IMMUNITY, INC., priority 2018, dated 2024)
pEC50: −log10 of the molar value. Like-named read-outs stand apart in the source and are kept apart here.

Assays:
THP-1 cells = assay: Measurement of IL-1β production, hTRF protocol (second alternative procedure), THP-1 cells; format: cell-based, human; conditions: Homo sapiens
Outline: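 THP-1 cells differentiated overnight with 50 ng/ml PMA, then plated at 50,000 cells/well in RPMI with 2% FBS onto serial compound dilutions (top final concentration 10 μM) for 2 hours at 37° C. Supernatant IL-1β measured by hTRF (antibodies at 1:40, overnight at 4° C), read at 665/615 nm against a standard curve.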

TLR7 = molecular target: T1, TLR7 (Homo sapiens, UniProt Q9NYK1); assay: In vitro human TLR7 binding reporter assay (HEK-Blue, NF-kB/AP1-inducible SEAP); format: cell-based; conditions: activity range class, read-out: TLR7 Agonist EC50
T1 construct: human HEK-Blue cells co-expressing a TLR7 or TLR8 gene
T1 sequence (Q9NYK1 27-1049): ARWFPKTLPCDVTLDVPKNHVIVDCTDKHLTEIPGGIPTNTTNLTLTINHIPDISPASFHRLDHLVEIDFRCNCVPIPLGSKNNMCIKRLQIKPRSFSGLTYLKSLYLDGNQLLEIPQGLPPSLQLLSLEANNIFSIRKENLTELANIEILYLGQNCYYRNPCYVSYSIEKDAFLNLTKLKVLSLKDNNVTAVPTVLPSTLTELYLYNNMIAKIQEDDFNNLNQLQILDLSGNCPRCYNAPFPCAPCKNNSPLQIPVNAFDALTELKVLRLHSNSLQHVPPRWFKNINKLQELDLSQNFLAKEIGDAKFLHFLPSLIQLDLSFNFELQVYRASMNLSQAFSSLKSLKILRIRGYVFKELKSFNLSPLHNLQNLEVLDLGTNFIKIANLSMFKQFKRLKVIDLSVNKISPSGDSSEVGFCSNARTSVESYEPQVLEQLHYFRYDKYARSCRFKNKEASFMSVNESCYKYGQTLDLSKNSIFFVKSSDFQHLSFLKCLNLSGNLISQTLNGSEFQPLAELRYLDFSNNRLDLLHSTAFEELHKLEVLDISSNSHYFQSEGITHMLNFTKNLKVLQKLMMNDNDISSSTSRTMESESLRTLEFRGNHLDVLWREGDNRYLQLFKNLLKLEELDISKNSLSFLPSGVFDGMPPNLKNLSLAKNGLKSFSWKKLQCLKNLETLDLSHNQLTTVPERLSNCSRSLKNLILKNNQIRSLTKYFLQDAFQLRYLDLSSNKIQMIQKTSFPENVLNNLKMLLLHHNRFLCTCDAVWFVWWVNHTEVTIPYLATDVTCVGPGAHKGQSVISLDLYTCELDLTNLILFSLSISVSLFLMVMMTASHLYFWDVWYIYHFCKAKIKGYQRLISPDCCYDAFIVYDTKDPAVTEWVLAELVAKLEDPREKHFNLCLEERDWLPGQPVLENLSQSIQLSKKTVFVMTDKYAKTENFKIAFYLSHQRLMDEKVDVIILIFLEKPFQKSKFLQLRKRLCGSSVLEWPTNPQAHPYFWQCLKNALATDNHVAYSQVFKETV
Outline: (§1)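 Cells are seeded and grown for 24 h. Compounds or DMSO are then added and incubated 18 h at 37 °C. Quanti-Blue is added, and SEAP is read after thirty minutes. EC50 values are normalized, with RLU from 50 μM reference standard setting 100% Ymax.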

TLR8 = molecular target: T2, TLR8 (Homo sapiens, UniProt Q9NR97); assay: In vitro human TLR8 binding reporter assay (HEK-Blue, NF-kB/AP1-inducible SEAP); format: cell-based; conditions: activity range class, read-out: TLR8 Agonist EC50
T2 construct: human HEK-Blue cells co-expressing a TLR7 or TLR8 gene
T2 sequence (Q9NR97 27-1041): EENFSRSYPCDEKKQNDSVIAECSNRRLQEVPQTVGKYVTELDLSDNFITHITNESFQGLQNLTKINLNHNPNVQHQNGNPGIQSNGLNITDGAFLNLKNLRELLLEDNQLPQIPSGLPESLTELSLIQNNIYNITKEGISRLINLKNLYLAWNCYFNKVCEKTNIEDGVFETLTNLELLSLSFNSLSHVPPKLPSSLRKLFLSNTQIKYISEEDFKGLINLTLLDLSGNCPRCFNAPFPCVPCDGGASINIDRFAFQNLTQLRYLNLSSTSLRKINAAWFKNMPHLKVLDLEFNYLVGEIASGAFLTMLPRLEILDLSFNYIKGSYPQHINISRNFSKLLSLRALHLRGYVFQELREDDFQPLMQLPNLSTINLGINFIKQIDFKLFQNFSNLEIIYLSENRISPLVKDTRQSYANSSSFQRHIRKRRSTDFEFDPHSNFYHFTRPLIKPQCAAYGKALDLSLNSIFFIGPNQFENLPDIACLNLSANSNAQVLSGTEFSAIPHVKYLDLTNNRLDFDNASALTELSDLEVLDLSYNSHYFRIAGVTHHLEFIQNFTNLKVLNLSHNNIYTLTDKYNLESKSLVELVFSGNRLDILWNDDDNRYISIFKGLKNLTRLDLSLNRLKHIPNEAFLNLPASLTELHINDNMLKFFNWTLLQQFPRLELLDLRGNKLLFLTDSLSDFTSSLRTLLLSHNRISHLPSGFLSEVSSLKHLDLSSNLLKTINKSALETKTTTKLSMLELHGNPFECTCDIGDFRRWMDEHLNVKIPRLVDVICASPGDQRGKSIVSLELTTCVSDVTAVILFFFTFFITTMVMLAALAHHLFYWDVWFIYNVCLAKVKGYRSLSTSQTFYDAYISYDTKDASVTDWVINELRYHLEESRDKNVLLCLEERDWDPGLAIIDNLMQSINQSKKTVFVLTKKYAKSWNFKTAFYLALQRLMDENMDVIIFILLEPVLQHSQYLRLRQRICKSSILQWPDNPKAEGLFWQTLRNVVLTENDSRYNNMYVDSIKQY
Outline: as §1

[1] = THP-1, IL-1β production, human, read-out: NLRP3 hILIB EC50
[2] = THP-1, read-out: NLRP3 hILIB EC50

Row | SMILES | pEC50 (THP-1 cells; [1]) | pEC50 (TLR7) | pEC50 (TLR8) | pEC50 (THP-1 cells; [2])
1 | Nc1nc2cc(-c3cc[nH]n3)ccc2c2cn(CCNCc3cccnc3)nc12 [Example 110] | 4.88 | 4.00 to 4.70 | 4.70 to 6.00 | 
2 | Nc1nc2cc(-c3cc[nH]n3)ccc2c2cn(CCNS(=O)(=O)c3ccccc3)nc12 [Example 114, N-{2-[4-amino-7-(1H-pyrazol-3-yl)-2H-pyrazolo[3,4-c]quinolin-2-yl]ethyl}benzenesulfonamide] |  | < 4.00 | < 4.00 | 5.32
3 | Nc1nc2cc(-c3cc[nH]n3)ccc2c2cn(CCNC(=O)Nc3ccccc3)nc12 [Example 115, 3-{2-[4-amino-7-(1H-pyrazol-3-yl)-2H-pyrazolo[3,4-c]quinolin-2-yl]ethyl}-1-phenylurea] | 5.11 | < 4.00 | < 4.00 | 
4 | CN(C)C(=O)NCCn1cc2c(n1)c(N)nc1cc(-c3cc[nH]n3)ccc12 [Example 116, 1-{2-[4-amino-7-(1H-pyrazol-3-yl)-2H-pyrazolo[3,4-c]quinolin-2-yl]ethyl}-3,3-dimethylurea] |  | < 4.00 | < 4.00 | 5.13
5 | Nc1nc2cc(-c3cc[nH]n3)ccc2c2cn(CCNC(=O)Oc3ccccc3)nc12 [Example 117, phenyl N-{2-[4-amino-7-(1H-pyrazol-3-yl)-2H-pyrazolo[3,4-c]quinolin-2-yl]ethyl}carbamate] |  | < 4.00 | 4.00 to 4.70 | 6.24
6 | CC(=O)N(C)CCn1cc2c(n1)c(N)nc1cc(-c3cc[nH]n3)ccc12 [Example 119, N-{2-[4-amino-7-(1H-pyrazol-3-yl)-2H-pyrazolo[3,4-c]quinolin-2-yl]ethyl}-N-methylacetamide] | 5.04 | < 4.00 | < 4.00 | 
7 | CN(CCn1cc2c(n1)c(N)nc1cc(-c3cc[nH]n3)ccc12)C(=O)c1ccccc1 [Example 120, N-{2-[4-amino-7-(1H-pyrazol-3-yl)-2H-pyrazolo[3,4-c]quinolin-2-yl]ethyl}-N-methylbenzamide] |  | < 4.00 | 4.00 to 4.70 | 5.73
8 | CN(CCn1cc2c(n1)c(N)nc1cc(-c3cc[nH]n3)ccc12)Cc1ccccc1 [Example 121, 2-{2-[benzyl(methyl)amino]ethyl}-7-(1H-pyrazol-3-yl)-2H-pyrazolo[3,4-c]quinolin-4-amine] |  | < 4.00 | < 4.00 | 6.07
9 | Nc1nc2cc(-c3cc[nH]n3)ccc2c2cn(CCN3CCCC3=O)nc12 [Example 122, 1-{2-[4-amino-7-(1H-pyrazol-3-yl)-2H-pyrazolo[3,4-c]quinolin-2-yl]ethyl}pyrrolidin-2-one] | 5.22 | < 4.00 | < 4.00 | 
10 | Nc1nc2cc(-c3cc[nH]n3)ccc2c2cn(CCCNC(=O)c3ccccc3)nc12 [Example 123, N-{3-[4-amino-7-(1H-pyrazol-3-yl)-2H-pyrazolo[3,4-c]quinolin-2-yl]propyl}benzamide] |  | < 4.00 | < 4.00 | 5.04
11 | Nc1nc2cc(-c3cc[nH]n3)ccc2c2cn(CCCNC(=O)c3ccccn3)nc12 [Example 124] | 5.01 | < 4.00 | < 4.00 | 
12 | Nc1nc2cc(-c3cc[nH]n3)ccc2c2cn(CCCNC(=O)c3ccc(F)cn3)nc12 [Example 125] | 5.08 | < 4.00 | < 4.00 | 

The next lines start with results.

Row | pEC50 (THP-1 cells; [1]) | pEC50 (TLR7) | pEC50 (TLR8) | SMILES | pEC50 (THP-1 cells; [2])
13 | 6.01 | 4.00 to 4.70 | < 4.00 | Cc1ccccc1CNCCn1cc2c(n1)c(N)nc1cc(-c3cc[nH]n3)ccc12 [Example 105, 2-(2-{[(2-methylphenyl)methyl]amino}ethyl)-7-(1H-pyrazol-3-yl)-2H-pyrazolo[3,4-c]quinolin-4-amine] | 
14 | 5.72 | 4.00 to 4.70 | 4.00 to 4.70 | Nc1nc2cc(-c3cc[nH]n3)ccc2c2cn(CCNCc3cccc(F)c3)nc12 [Example 106] | 
15 | 5.58 | < 4.00 | < 4.00 | Nc1nc2cc(-c3cc[nH]n3)ccc2c2cn(CCNCc3ccc(Cl)cc3)nc12 [Example 107] | 
16 | 6.04 | 4.00 to 4.70 | 4.00 to 4.70 | Nc1nc2cc(-c3cc[nH]n3)ccc2c2cn(CCNCc3ccccc3)nc12 [Example 108] | 
17 | 5.75 | 4.00 to 4.70 | 4.00 to 4.70 | CC(C)NCCn1cc2c(n1)c(N)nc1cc(-c3cc[nH]n3)ccc12 [Example 109] | 
18 | 5.68 | 4.00 to 4.70 | < 4.00 | COc1ccc(CNCCn2cc3c(n2)c(N)nc2cc(-c4cc[nH]n4)ccc23)cc1 [Example 111] | 
19 | 5.60 | < 4.00 | < 4.00 | Nc1nc2cc(-c3cc[nH]n3)ccc2c2cn(CCNCc3ccccn3)nc12 [Example 112] | 
20 | 5.42 | 4.00 to 4.70 | < 4.00 | CS(=O)(=O)NCCn1cc2c(n1)c(N)nc1cc(-c3cc[nH]n3)ccc12 [Example 113, N-{2-[4-amino-7-(1H-pyrazol-3-yl)-2H-pyrazolo[3,4-c]quinolin-2-yl]ethyl}methanesulfonamide] | 
21 | 6.07 | < 4.00 | < 4.00 | CC(C)(C)OC(=O)NCCn1cc2c(n1)c(N)nc1cc(-c3cc[nH]n3)ccc12 [Example 118, tert-butyl N-{2-[4-amino-7-(1H-pyrazol-3-yl)-2H-pyrazolo[3,4-c]quinolin-2-yl]ethyl}carbamate] | 
22 | 5.27 | < 4.00 | < 4.00 | CC(=O)NCCCn1cc2c(n1)c(N)nc1cc(-c3cc[nH]n3)ccc12 [Example 126] | 
23 | 5.98 | < 4.00 | < 4.00 | CC(C)(C)OC(=O)NCCn1cc2c(n1)c(N)nc1cc(-c3cccs3)ccc12 [Example 127, tert-butyl N-{2-[4-amino-7-(thiophen-2-yl)-2H-pyrazolo[3,4-c]quinolin-2-yl]ethyl}carbamate] | 
24 | 6.44 | < 4.00 | < 4.00 | Cc1nc(C(=O)NCCn2cc3c(n2)c(N)nc2cc(-c4cccs4)ccc23)co1 [Example 128, N-{2-[4-amino-7-(thiophen-2-yl)-2H-pyrazolo[3,4-c]quinolin-2-yl]ethyl}-2-methyl-1,3-oxazole-4-carboxamide] | 
25 | 6.15 | < 4.00 | < 4.00 | Nc1nc2cc(-c3cccs3)ccc2c2cn(CCNC(=O)c3ccc(F)cn3)nc12 [Example 129] | 
26 | 6.19 | < 4.00 | < 4.00 | CC(=O)NCCn1cc2c(n1)c(N)nc1cc(-c3cccs3)ccc12 [Example 130] | 
